# According to US10517926B2, “Oligopeptide having proinflammatory cytokine secretion-inhibiting activity” (Osaka University, priority 2015, dated 2019):
# Key:
# [1] = test system: MG6 cells; assay: Proinflammatory cytokine secretion inhibition, LPS-stimulated microglial cells (ELISA); format: cell-based, mouse; details: MG6 cells, peptide 50 or 100 μg/ml, LPS 2 ng/ml, 24 hours
# Procedure: MG6 cells (mouse-derived microglial cell line) were cultured in a DMEM medium (+4% FBS) containing MHP1 or MHP2 (final concentration: 50 or 100 μg/ml), and LPS (final concentration: 2 ng/ml) for 24 hours by a standard method. After culture, the concentrations of IL-6 and TNFα in the medium were measured by the ELISA method. In the Examples of the present application, the ELISA method was performed using a kit (Quantikine ELISA Mouse TNF-α or Quantikine ELISA Mouse IL-6, produced by R&D Systems). The results are shown in FIG. 1 (IL-6) and FIG. 2 (TNFα).
# The proinflammatory cytokine secretion-inhibiting effect was examined in the same as in Example 2, except that the final concentration of MHP1 was set to 100 μg/ml, and that RANKL full-length protein was used at a final concentration of 10 ng/ml or 100 ng/ml as the comparison target.
# [2] = test system: cerebral infarction model mice; assay: Necrosis inhibition by intravenous administration in cerebral infarction models; format: in vivo, mouse; details: 300 μG i.v. 4 hours after infarction, then 336 μg s.c. over 21 hours
# Procedure: A cerebral ischemic area was artificially developed in wild-type mice (C57BL6/J) using embolic suture. Specifically, nylon suture was inserted from the right external carotid artery into the intracranial internal carotid artery, and the right middle cerebral artery was temporarily occluded. The embolic suture was removed 40 minutes after the formation of the ischemic area, and the blood was reperfused. Four hours after the formation of the ischemic area, 2 μl of MHP1 solution (0.625 μg/2 μl, the solvent was artificial cerebrospinal fluid (aCSF)) or 2 μl of aCSF was administered by injection into the ventricle of the mice with a neurological severe score of 1 or 2. […] The area of the cresyl violet staining site was regarded as the cerebral infarct area (necrosis site), and the ratio of cerebral infarct area was determined by the following formula. […]
# Cerebral infarction models were produced in the same manner as in Example 10. […] Twenty-four hours and forty-eight hours after the production of the cerebral infarction models, neurological severity scores were measured. Furthermore, the mice were sacrificed 48 hours after the production of the cerebral infarction models, and the ratio of cerebral infarct area was determined in the same manner as in Example 10.
sequence,measurement,setting,value
LMVYVVKTSIKIPSSHNLMKGGSTKNWSGN (listed as Mus musculus) [MHP1],increase in the amount of IL-6 secretion by LPS,[1]; FIG. 1,suppressed
same,increase in the amount of TNFα secretion by LPS,[1]; FIG. 2,suppressed
same,symptoms of cerebral infarction (neurological severity scores),"[2]; 24 and 48 hours, FIG. 23",could be relieved
same,necrosis occurring after cerebral ischemia (ratio of cerebral infarct area),"[2]; 48 hours, FIG. 22",could be suppressed
